In assay [1] the target is T1, purified human autoBACE-2 (Homo sapiens, UniProt Q9Y5Z0).
T1 sequence (Q9Y5Z0 63-473 limits assumed): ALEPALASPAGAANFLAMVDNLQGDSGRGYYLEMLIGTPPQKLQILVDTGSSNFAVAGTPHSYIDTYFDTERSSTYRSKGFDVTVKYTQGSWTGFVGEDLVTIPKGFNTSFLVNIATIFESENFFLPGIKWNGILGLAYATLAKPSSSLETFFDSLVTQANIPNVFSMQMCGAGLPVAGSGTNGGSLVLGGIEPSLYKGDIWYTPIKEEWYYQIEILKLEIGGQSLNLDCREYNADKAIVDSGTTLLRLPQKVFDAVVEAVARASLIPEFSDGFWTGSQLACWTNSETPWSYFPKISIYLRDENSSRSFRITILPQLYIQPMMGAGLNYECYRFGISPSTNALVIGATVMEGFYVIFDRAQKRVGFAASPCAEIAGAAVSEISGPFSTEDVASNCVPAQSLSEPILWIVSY
The assay is described as follows: BACE-2 Assay (BACE-HTRF assay). It is filed as biochemical. The following applies: Ki calculated from IC50 using the Cheng-Prusoff equation; QSY7-EISEVNLDAEFC-Eu-amide substrate 200 nM final, pH 5.0, 30°C; read-out: BACE2 Ki. How it is done: Inhibitor IC50's at purified human autoBACE-2 are determined in a time-resolved endpoint proteolysis assay that measures hydrolysis of the QSY7-[…]-Eu-amide FRET peptide substrate (BACE-HTRF assay). […] Inhibitor compounds, prepared at 3x the desired final concentration in 1x BACE assay buffer (20 mM sodium acetate pH 5.0,10% glycerol, 0.1% Brij-35) supplemented with 7.5% DMSO are pre-incubated with an equal volume of autoBACE-2 enzyme diluted in 1x BACE assay buffer (final enzyme concentration 1 nM) in black 384-well NUNC plates for 30 minutes at 30°C. […] DMSO is present at 5% final concentration in the assay. Following laser excitation of sample wells at 320 nm, the fluorescence signal at 620 nm is collected for 400 ms following a 50 µs delay on a RUBYstar HTRF plate reader (BMG Labtechnologies). Raw RFU data is normalized to maximum (1.0 nM BACE/DMSO) and minimum (no enzyme/DMSO) RFU values. […] The Ki values are calculated from the IC50 using the Cheng-Prusoff equation.

Assay [2] deals with soluble human BACE1 catalytic domain (Homo sapiens, UniProt P56817). Put plainly: BACE1 HTRF FRET Assay. The class given is biochemical. The following applies: Ki calculated from IC50 using the Cheng-Prusoff equation; QSY7-APPswe-Eu substrate 200 nM final, pH 5.0, 30° C. The protocol: A homogeneous time-resolved FRET assay can be used to determine IC50 values for inhibitors of the soluble human BACE1 catalytic domain. […] This substrate contains an N-terminal QSY7 moiety that serves as a quencher of the C-terminal Europium fluorophore (620nm Em). […] Inhibition of BACE1 cleavage of the QSY7-APP^swe-Eu substrate by inhibitors is manifested as a suppression of 620 nm fluorescence. […] The reactions are incubated at 30° C for 1.5 hours. The 620nm fluorescence is then read on a Rubystar HTRF plate reader (BMG Labtechnologies) using a 50 millisecond delay followed by a 400 millisecond acquisition time window. Inhibitor IC50 values are derived from non-linear regression analysis of concentration response curves.
Sequence of soluble human BACE1 catalytic domain (P56817 75-416 limits assumed): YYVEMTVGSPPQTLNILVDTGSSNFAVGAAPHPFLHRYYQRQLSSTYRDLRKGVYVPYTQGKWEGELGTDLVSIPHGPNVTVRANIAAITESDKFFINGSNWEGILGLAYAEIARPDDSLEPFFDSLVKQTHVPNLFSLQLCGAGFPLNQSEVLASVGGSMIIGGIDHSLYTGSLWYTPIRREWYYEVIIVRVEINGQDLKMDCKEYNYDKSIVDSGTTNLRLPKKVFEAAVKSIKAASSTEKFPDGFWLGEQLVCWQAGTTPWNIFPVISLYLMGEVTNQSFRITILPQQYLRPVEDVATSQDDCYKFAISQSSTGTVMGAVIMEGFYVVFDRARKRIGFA

The Ki is the equilibrium dissociation constant of an inhibitor or competing ligand from its target. On to `CCS(=O)(=O)N1CC[C@@]2(C1)[C@@](C)(c1cc(NC(=O)c3ccc(OC)cn3)ccc1F)NC(=N)N(C)S2(=O)=O` [Example 56], for which the Ki in assay [1] was 6 nM; in assay [2] it was 1 nM.

For `CN1C(=N)N[C@](C)(c2cc(NC(=O)c3ccc(F)cn3)ccc2F)[C@]2(CCN(S(=O)(=O)C3CCCC3)C2)S1(=O)=O` [Example 84], the Ki in assay [1] and in assay [2] was 2 nM each time.

As to `CN1C(=N)N[C@](C)(c2cc(NC(=O)c3ccc(F)cn3)ccc2F)[C@]2(CCN(S(=O)(=O)CC(F)(F)F)C2)S1(=O)=O` [Example 74], the Ki in assay [1] was 4 nM; in assay [2] it was 2 nM.

As for `CCS(=O)(=O)N1CC[C@]2(C1)[C@@](C)(c1cc(NC(=O)c3ccc(OC)cn3)ccc1F)NC(=N)N(C)S2(=O)=O` [Example 69], the Ki in assay [1] was 157 nM; in assay [2], 33 nM.

Turning to `CN1C(=N)N[C@](C)(c2cc(NC(=O)c3ccc(F)cn3)ccc2F)[C@]2(CCN(S(C)(=O)=O)C2)S1(=O)=O` [Example 75], the Ki in assay [1] is 7 nM; in assay [2], 4 nM.

In the case of `CN1C(=N)N[C@](C)(c2cc(NC(=O)c3ccc(F)cn3)ccc2F)[C@]2(CCN(S(=O)(=O)c3cn(C)cn3)C2)S1(=O)=O` [Example 81], the figures for the Ki in assay [1] and in assay [2] were 24 nM and 8 nM, respectively.

Consider `COc1ccc(C(=O)Nc2ccc(F)c([C@@]3(C)NC(=N)N(C)S(=O)(=O)[C@@]34CCN(S(C)(=O)=O)C4)c2)nc1` [Example 55], for which the Ki was 10 nM in assay [1] and 3 nM in assay [2].

`COc1ccc(C(=O)Nc2ccc(F)c([C@@]3(C)NC(=N)N(C)S(=O)(=O)[C@]34CCN(Cc3cocn3)C4)c2)nc1` [Example 18]: the Ki in assay [1] is 158 nM; in assay [2], 47 nM.

Regarding `CN1C(=N)N[C@](C)(c2cc(NC(=O)c3ccc(F)cn3)ccc2F)C2(CCNC2)S1(=O)=O` (some centres unmarked) [Example 2], the Ki in assay [1] was 30 nM; in assay [2], 19.5 nM.

Regarding `CN1C(=N)N[C@](C)(c2cc(NC(=O)c3ccc(F)cn3)ccc2F)[C@]2(CCN(S(=O)(=O)C3CC3)C2)S1(=O)=O` [Example 79], the values for the Ki in assay [1] and in assay [2] were 2 nM and 1 nM, respectively.

In the case of `CN1C(=N)N[C@](C)(c2cc(NC(=O)c3ccc(F)cn3)ccc2F)[C@@]2(CCN(S(=O)(=O)C3CCCC3)C2)S1(=O)=O` [Example 85], the figures for the inhibition constant Ki in assay [1] and in assay [2] were 37 nM and 41 nM, respectively.

With `COc1ccc(C(=O)Nc2ccc(F)c([C@@]3(C)NC(=N)N(C)S(=O)(=O)[C@@]34CCN(S(=O)(=O)C3CC3)C4)c2)nc1` [Example 60], the figures for the Ki in assay [1] and in assay [2] were 4 nM and 1 nM, respectively.

Take `CCCCN1CC[C@]2(C1)[C@@](C)(c1cc(NC(=O)c3ccc(F)cn3)ccc1F)NC(=N)N(C)S2(=O)=O` [Example 52]: the Ki in assay [1] is 61 nM; in assay [2], 73 nM.

For the molecule `CN1C(=N)N[C@](C)(c2cc(NC(=O)c3ccc(F)cn3)ccc2F)[C@]2(CCN(S(=O)(=O)c3ccccc3)C2)S1(=O)=O` [Example 78], the Ki was 7 nM in assay [1] and 2 nM in assay [2].

Take `COc1ccc(C(=O)Nc2ccc(F)c([C@@]3(C)NC(=N)N(C)S(=O)(=O)[C@]34CCN(Cc3cnco3)C4)c2)nc1` [Example 28]: the Ki in assay [1] is 237 nM; in assay [2], 28 nM.

Take `COc1ccc(C(=O)Nc2ccc(F)c([C@@]3(C)NC(=N)N(C)S(=O)(=O)[C@]34CCN(CC3CC3)C4)c2)nc1` [Example 24]: the inhibition constant (Ki) in assay [1] was 128 nM; in assay [2], 34 nM.

As to `COc1ccc(C(=O)Nc2ccc(F)c([C@@]3(C)NC(=N)N(C)S(=O)(=O)[C@]34CCN(S(=O)(=O)CC3CCCO3)C4)c2)nc1` (some centres unmarked) [Example 66], the values for the Ki in assay [1] and in assay [2] were 87 nM and 32 nM, respectively.

For the molecule `COCC(=O)Nc1ccc(F)c([C@@]2(C)NC(=N)N(C)S(=O)(=O)[C@@]23CCNC3)c1` [Example 97], the figures for the Ki in assay [1] and in assay [2] were 782 nM and 1040 nM, respectively.

Take `CN1C(=N)N[C@](C)(c2cc(NC(=O)c3ccc(F)cn3)ccc2F)C2(CCN(S(C)(=O)=O)C2)S1(=O)=O` (some centres unmarked) [Example 3]: the figures for the Ki in assay [1] and in assay [2] were 9 nM and 5 nM, respectively.

Turning to `CN1C(=N)N[C@](C)(c2cc(NC(=O)c3ccc(F)cn3)ccc2F)[C@@]2(CCN(S(=O)(=O)C3CC3)C2)S1(=O)=O` [Example 92], the values for the Ki in assay [1] and in assay [2] were 29 nM and 41 nM, respectively.

As for `COc1ccc(C(=O)Nc2ccc(F)c([C@@]3(C)NC(=N)N(C)S(=O)(=O)[C@]34CCN(S(=O)(=O)c3cn[nH]c3)C4)c2)nc1` [Example 67], the Ki is 40 nM in assay [1] and 20 nM in assay [2].

As to `CN1C(=N)N[C@](C)(c2cc(NC(=O)c3ccc(F)cn3)ccc2F)[C@@]2(CCN(Cc3ccncc3)C2)S1(=O)=O` [Example 53], the Ki in assay [1] is 61 nM; in assay [2], 84 nM.

Turning to `COc1ccc(C(=O)Nc2ccc(F)c([C@@]3(C)NC(=N)N(C)S(=O)(=O)[C@@]34CCN(S(=O)(=O)CC(C)C)C4)c2)nc1` [Example 57], the figures for the Ki in assay [1] and in assay [2] were 5 nM and 1 nM, respectively.

As for `COc1ccc(C(=O)Nc2ccc(F)c([C@@]3(C)NC(=N)N(C)S(=O)(=O)[C@]34CCN(CC3CC(OC)C3)C4)c2)nc1` (some centres unmarked) [Example 21], the Ki in assay [1] was 201 nM; in assay [2], 91 nM.

Consider `COc1ccc(C(=O)Nc2ccc(F)c([C@@]3(C)NC(=N)N(C)S(=O)(=O)[C@]34CCN(Cc3cncnc3)C4)c2)nc1` [Example 26], for which the Ki in assay [1] was 329 nM; in assay [2] it was 51 nM.

Take `CN1C(=N)N[C@](C)(c2cc(NC(=O)c3ccc(F)cn3)ccc2F)[C@@]2(CCN(Cc3cncnc3)C2)S1(=O)=O` [Example 50]: the Ki in assay [1] is 77 nM; in assay [2], 70 nM.

`CN1C(=N)N[C@](C)(c2cc(NC(=O)c3ccc(F)cn3)ccc2F)[C@@]2(CCN(Cc3cnn(C)c3)C2)S1(=O)=O` [Example 51]: the Ki in assay [1] is 184 nM; in assay [2] it was 151 nM.

Consider `COc1ccc(C(=O)Nc2ccc(F)c([C@@]3(C)NC(=N)N(C)S(=O)(=O)[C@@]34CCN(S(=O)(=O)c3ccccc3)C4)c2)nc1` [Example 59], for which the Ki in assay [1] was 16 nM; in assay [2], 3 nM.

`COc1ccc(C(=O)Nc2ccc(F)c([C@@]3(C)NC(=N)N(C)S(=O)(=O)[C@]34CCN(Cc3cccnc3)C4)c2)nc1` [Example 23]: the Ki in assay [1] is 142 nM; in assay [2], 30 nM.

As for `CN1C(=N)N[C@](C)(c2cc(NC(=O)c3ccc(F)cn3)ccc2F)C2(CCN(C(=O)C3CC3)C2)S1(=O)=O` (some centres unmarked) [Example 5], the Ki in assay [1] was 3.1 nM; in assay [2] it was 2 nM.

Consider `CN1C(=N)N[C@](C)(c2cc(NC(=O)c3ccc(F)cn3)ccc2F)[C@@]2(CCN(Cc3cccnc3)C2)S1(=O)=O` [Example 46], for which the Ki is 40 nM in assay [1] and 54 nM in assay [2].

Turning to `CN1C(=N)N[C@](C)(c2cc(NC(=O)c3ccc(F)cn3)ccc2F)[C@@]2(CCN(Cc3cnco3)C2)S1(=O)=O` [Example 54], the values for the Ki in assay [1] and in assay [2] were 74 nM and 54 nM, respectively.

Consider `COc1ccc(C(=O)Nc2ccc(F)c([C@@]3(C)NC(=N)N(C)S(=O)(=O)[C@]34CCN(Cc3cscn3)C4)c2)nc1` [Example 19], for which the Ki in assay [1] is 70 nM; in assay [2], 20 nM.

With `COc1ccc(C(=O)Nc2ccc(F)c([C@@]3(C)NC(=N)N(C)S(=O)(=O)[C@]34CCN(S(=O)(=O)C3CC3)C4)c2)nc1` [Example 64], the inhibitory constant (Ki) in assay [1] is 140 nM; in assay [2], 40 nM.

As to `CN1C(=N)N[C@](C)(c2cc(NC(=O)c3ccc(F)cn3)ccc2F)C2(CCN(C(=O)CC3CC3)C2)S1(=O)=O` (some centres unmarked) [Example 6], the figures for the Ki in assay [1] and in assay [2] were 5.2 nM and 2.7 nM, respectively.

Take `CN1C(=N)N[C@](C)(c2cc(NC(=O)c3ccc(F)cn3)ccc2F)[C@]2(CCN(S(=O)(=O)c3cn[nH]c3)C2)S1(=O)=O` [Example 83]: the Ki was 11 nM in assay [1] and 5 nM in assay [2].

Regarding `COc1ccc(C(=O)Nc2ccc(F)c([C@@]3(C)NC(=N)N(C)S(=O)(=O)[C@]34CCN(Cc3cnn(C)c3)C4)c2)nc1` [Example 27], the results for the Ki in assay [1] and in assay [2] were 388 nM and 54 nM, respectively.

The values above are taken from patent EP2934149B1, “C6-AZASPIRO IMINOTHIADIAZINE DIOXIDES AS BACE INHIBITORS” (Merck Sharp & Dohme Corp., priority 2012, dated 2014).
